Holding throughout (assay type): functional
What all share (design): scale not given: the % may be the effect or the level left

Assay [1] deals with Rattus norvegicus. The assay can be described thus: Antihyperglycemic activity in streptozotocin-induced Rattus norvegicus Wistar (rat) diabetic model assessed as reduction in plasma glucose level at 25 umol/kg, po for 15 measured after treatment.
Assay [2] deals with Rattus norvegicus. The experiment in a line: Antihyperglycemic activity in streptozotocin-induced Rattus norvegicus Wistar (rat) diabetic model assessed as reduction in plasma glucose level at 25 umol/kg, po for 9 weeks measured on day 7.
For assay [3], the system named is Rattus norvegicus. The experiment in a line: Antihyperglycemic activity in streptozotocin-induced Rattus norvegicus Wistar (rat) diabetic model assessed as reduction in plasma glucose level at 20 umol/kg, po for 9 weeks measured on day 7.
The subject of assay [4] is Rattus norvegicus. The experiment in a line: Antihyperglycemic activity in streptozotocin-induced Rattus norvegicus Wistar (rat) diabetic model assessed as reduction in plasma glucose level at 25 umol/kg, po for 9 weeks measured at 3 day.
For assay [5], the system named is Rattus norvegicus. The experiment in a line: Antihyperglycemic activity in streptozotocin-induced Rattus norvegicus Wistar (rat) diabetic model assessed as reduction in plasma glucose level at 20 umol/kg, po for 9 weeks measured at 15 day.
The subject of assay [6] is Rattus norvegicus. The assay can be described thus: Antihyperglycemic activity in streptozotocin-induced Rattus norvegicus Wistar (rat) diabetic model assessed as reduction in plasma glucose level at 30 umol/kg, po for 9 weeks measured at 15 day.
The test system of assay [7] is Rattus norvegicus. The assay can be described thus: Antihyperglycemic activity in streptozotocin-induced Rattus norvegicus Wistar (rat) diabetic model assessed as reduction in plasma glucose level at 20 umol/kg, po for 9 weeks measured at 10 day.
Assay [8] concerns Rattus norvegicus. The experiment in a line: Antihyperglycemic activity in streptozotocin-induced Rattus norvegicus Wistar (rat) diabetic model assessed as reduction in plasma glucose level at 20 umol/kg, po for 9 weeks measured at 3 day.
Assay [9] relates to Rattus norvegicus. The experiment in a line: Antihyperglycemic activity in streptozotocin-induced Rattus norvegicus Wistar (rat) diabetic model assessed as reduction in plasma glucose level at 25 umol/kg, po for 9 weeks measured at 10 day.
The subject of assay [10] is Rattus norvegicus. The experiment in a line: Antihyperglycemic activity in streptozotocin-induced Rattus norvegicus Wistar (rat) diabetic model assessed as reduction in plasma glucose level at 30 umol/kg, po for 9 weeks measured at 3 day.
Assay [11] relates to Rattus norvegicus. The assay can be described thus: Antihyperglycemic activity in streptozotocin-induced Rattus norvegicus Wistar (rat) diabetic model assessed as reduction in plasma glucose level at 15 umol/kg, po for 9 weeks measured on day 7.
In assay [12] the test system is Rattus norvegicus. The assay can be described thus: Antihyperglycemic activity in streptozotocin-induced Rattus norvegicus Wistar (rat) diabetic model assessed as reduction in plasma glucose level at 15 umol/kg, po for 9 weeks measured at 3 day.
Assay [13] relates to Rattus norvegicus. The experiment in a line: Antihyperglycemic activity in streptozotocin-induced Rattus norvegicus Wistar (rat) diabetic model assessed as reduction in plasma glucose level at 30 umol/kg, po for 9 weeks measured at 10 day.
Assay [14] concerns Rattus norvegicus. The experiment in a line: Antihyperglycemic activity in streptozotocin-induced Rattus norvegicus Wistar (rat) diabetic model assessed as reduction in plasma glucose level at 15 umol/kg, po for 9 weeks measured at 15 day.
Assay [15] deals with Rattus norvegicus. The experiment in a line: Antihyperglycemic activity in streptozotocin-induced Rattus norvegicus Wistar (rat) diabetic model assessed as reduction in plasma glucose level at 30 umol/kg, po for 9 weeks measured on day 7.
For assay [16], the system named is Rattus norvegicus. The experiment in a line: Antihyperglycemic activity in streptozotocin-induced Rattus norvegicus Wistar (rat) diabetic model assessed as reduction in plasma glucose level at 25 umol/kg, po for 9 weeks measured at 15 day.
In assay [17] the test system is Rattus norvegicus. The experiment in a line: Antihyperglycemic activity in streptozotocin-induced Rattus norvegicus Wistar (rat) diabetic model assessed as reduction in plasma glucose level at 15 umol/kg, po for 9 weeks measured at 10 day.

Turning to `CCOC(=O)/C(=C/c1ccc(OC)c(OC)c1)c1ccc(Oc2ccc(CC3SC(=O)NC3=O)cc2)cc1` (stereo not given), the Activity with Rattus norvegicus [1] was 37.15%.

`CCOC(=O)/C(=C/c1ccc(OC)cc1)c1ccc(Oc2ccc(CC3SC(=O)NC3=O)cc2)cc1` (stereo not given): in the assay with Rattus norvegicus [1], the Activity was 14.61%.

Consider `CCCOC(=O)/C(=C/c1ccc(Br)cc1)c1ccc(Oc2ccc(CC3SC(=O)NC3=O)cc2)cc1` (stereo not given), for which, in the assay on Rattus norvegicus [1], the Activity amounted to 13.42%.

For `COC(=O)/C(=C/c1ccc(OC)cc1OC)c1ccc(Oc2ccc(CC3SC(=O)NC3=O)cc2)cc1` (stereo not given), in the assay with Rattus norvegicus [1], the Activity was found to be 46.13%.

As for `CCOC(=O)/C(=C/c1ccc(O)cc1)c1ccc(Oc2ccc(CC3SC(=O)NC3=O)cc2)cc1` (stereo not given), the Activity with Rattus norvegicus [1] is listed as 18.16%.

Consider `COC(=O)/C(=C/c1ccc(Br)cc1)c1ccc(Oc2ccc(CC3SC(=O)NC3=O)cc2)cc1` (stereo not given), for which the Activity in the assay with Rattus norvegicus [1] is listed as 15.58%.

With `CCOC(=O)/C(=C/c1ccc(OC)cc1OC)c1ccc(Oc2ccc(CC3SC(=O)NC3=O)cc2)cc1` (stereo not given), the Activity in the assay with Rattus norvegicus [1] turned out to be 46.03%.

In the case of `CN(CCOc1ccc(CC2SC(=O)NC2=O)cc1)c1ccccn1` (stereo not given) [ROSIGLITAZONE], in the assay with Rattus norvegicus [1], the Activity turned out to be 56.73%.

Consider `COC(=O)/C(=C/c1ccc(O)cc1)c1ccc(Oc2ccc(CC3SC(=O)NC3=O)cc2)cc1` (stereo not given), for which the Activity in the assay on Rattus norvegicus [1] came out at 18.81%.

As for `CCCOC(=O)/C(=C/c1ccc(O)cc1)c1ccc(Oc2ccc(CC3SC(=O)NC3=O)cc2)cc1` (stereo not given), the Activity in the assay with Rattus norvegicus [1] is listed as 17.48%.

As for `CCCOC(=O)/C(=C/c1ccc([N+](=O)[O-])cc1)c1ccc(Oc2ccc(CC3SC(=O)NC3=O)cc2)cc1` (stereo not given), in the assay on Rattus norvegicus [1], the Activity was determined as 12.45%.

`COC(=O)/C(=C/c1ccccc1)c1ccc(Oc2ccc(CC3SC(=O)NC3=O)cc2)cc1` (stereo not given): the Activity with Rattus norvegicus [1] is recorded as 10.74%.

`CCOC(=O)/C(=C/c1ccc([N+](=O)[O-])cc1)c1ccc(Oc2ccc(CC3SC(=O)NC3=O)cc2)cc1` (stereo not given): the Activity in the assay with Rattus norvegicus [1] is 13.4%.

On to `CCCOC(=O)/C(=C/c1ccc(OC)c(OC)c1)c1ccc(Oc2ccc(CC3SC(=O)NC3=O)cc2)cc1` (stereo not given), for which, in the assay on Rattus norvegicus [1], the Activity is listed as 35.85%.

`CCCOC(=O)/C(=C/c1ccc(OC)cc1OC)c1ccc(Oc2ccc(CC3SC(=O)NC3=O)cc2)cc1` (stereo not given): in the assay on Rattus norvegicus [1], the Activity came out at 45.91%.

As to `COC(=O)/C(=C/c1cccc(OC)c1OC)c1ccc(Oc2ccc(CC3SC(=O)NC3=O)cc2)cc1` (stereo not given), in the assay on Rattus norvegicus [1], the Activity is listed as 37.05%.

For the compound `COC(=O)/C(=C/c1ccc([N+](=O)[O-])cc1)c1ccc(Oc2ccc(CC3SC(=O)NC3=O)cc2)cc1` (stereo not given), the Activity in the assay with Rattus norvegicus [1] turned out to be 13.26%.

Regarding `COC(=O)/C(=C/c1ccc(OC)c(OC)c1)c1ccc(Oc2ccc(CC3SC(=O)NC3=O)cc2)cc1` (stereo not given), the Activity in the assay on Rattus norvegicus [1] was found to be 38.11%.

On to `CCOC(=O)/C(=C/c1ccccc1)c1ccc(Oc2ccc(CC3SC(=O)NC3=O)cc2)cc1` (stereo not given), for which, in the assay with Rattus norvegicus [1], the Activity was 9.8%.

For the compound `CCOC(=O)/C(=C/c1ccc(Br)cc1)c1ccc(Oc2ccc(CC3SC(=O)NC3=O)cc2)cc1` (stereo not given), the Activity with Rattus norvegicus [1] is on record as 13.63%.

For `CCCOC(=O)/C(=C/c1ccc(OC)cc1)c1ccc(Oc2ccc(CC3SC(=O)NC3=O)cc2)cc1` (stereo not given), in the assay with Rattus norvegicus [1], the Activity was 13%.

`CCCOC(=O)/C(=C/c1cccc(OC)c1OC)c1ccc(Oc2ccc(CC3SC(=O)NC3=O)cc2)cc1` (stereo not given): the Activity with Rattus norvegicus [2] was 21.34%; with Rattus norvegicus [3], 14.56%; with Rattus norvegicus [4] it was 18.06%; in the assay with Rattus norvegicus [5], 21.76%; in the assay with Rattus norvegicus [6], 35.47%; in the assay on Rattus norvegicus [7], 17.26%. Moreover, the Activity in the assay with Rattus norvegicus [8] is listed as 10.91%; in the assay with Rattus norvegicus [9] it was 25.53%; with Rattus norvegicus [10], 19.42%; with Rattus norvegicus [11], 11.49%; with Rattus norvegicus [12] it was 8.38%; with Rattus norvegicus [13], 24.68%. Also, the Activity in the assay on Rattus norvegicus [14] is 18.47%; in the assay with Rattus norvegicus [1], 37.24%; in the assay on Rattus norvegicus [15], 20.87%; with Rattus norvegicus [16], 37.24%; in the assay on Rattus norvegicus [17], 15.53%.

Take `COC(=O)/C(=C/c1ccc(OC)cc1)c1ccc(Oc2ccc(CC3SC(=O)NC3=O)cc2)cc1` (stereo not given): the Activity in the assay on Rattus norvegicus [1] is given as 16.3%.

For the compound `CCCOC(=O)/C(=C/c1ccccc1)c1ccc(Oc2ccc(CC3SC(=O)NC3=O)cc2)cc1` (stereo not given), the Activity in the assay with Rattus norvegicus [1] is reported as 8.6%.

Values taken from ChEMBL document CHEMBL3045832, “3-Aryl-2-{4-[4-(2,4-dioxothiazolidin-5-ylmethyl)phenoxy]-phenyl}-acrylic acid alkyl ester: synthesis and antihyperglycemic evaluation” (2011).
